Laboratory results: patent publication US12084472B2 (Ardelyx, Inc., priority 2015, dated 2024)

Each molecule was assayed against T1, human TGR5 (Homo sapiens, UniProt Q8TDU6) (assay: Cell-based TGR5 assay (cAMP generation, HTRF)). Details: HEK293 cells stably transfected with human TGR5; cAMP by HTRF; 30 minutes at 37° C.; read-out: pEC50 Human TGR5 (converted).
T1 construct: expressed in transfected cells; host or cells: HEK293
T1 sequence (Q8TDU6 1-330): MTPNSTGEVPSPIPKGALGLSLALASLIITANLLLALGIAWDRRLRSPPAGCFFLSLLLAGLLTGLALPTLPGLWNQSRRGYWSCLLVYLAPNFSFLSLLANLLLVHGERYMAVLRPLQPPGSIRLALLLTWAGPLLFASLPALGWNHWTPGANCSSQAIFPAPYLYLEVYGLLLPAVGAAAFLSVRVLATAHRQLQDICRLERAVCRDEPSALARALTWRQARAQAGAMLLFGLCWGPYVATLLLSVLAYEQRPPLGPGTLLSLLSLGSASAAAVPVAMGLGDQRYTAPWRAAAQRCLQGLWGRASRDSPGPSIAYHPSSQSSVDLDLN
Outline: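 Read-out was HTRF detection of cAMP, converted to concentration via a standard curve and fitted (3-parameter logistic) for pEC50 and maximal response. Agonist stimulation used HEK293 cells stably transfected with human TGR5, incubated 30 min at 37° C in IBMX-containing buffer at 0.05 nM to 10 μM compound.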
For CN(CCCCN(CCS(C)(=O)=O)C(=O)[C@@H](O)[C@@H](O)[C@H](O)[C@@H](O)CO)S(=O)(=O)c1ccc(Cl)c(COC2(c3cnccc3-c3ccccc3OC3CC3)CC2)c1 [Compound I-459, (2S,3S,4R,5S)-2,3,4,5,6-pentahydroxy-N-(2-methanesulfonylethyl)-N-{4-[N-methyl4-chloro-3-({1-[4-(2-cyclopropoxyphenyl)pyridin-3-yl]cyclopropoxy}methyl)benzenesulfonamido]butyl}hexanamide], the EC50 was under 100 nM.
For O=C(NCCCCc1cc(Cl)c(COC2(c3cnccc3-c3ccccc3OC3COC3)CC2)cc1Cl)NC[C@H](O)[C@@H](O)[C@H](O)[C@H](O)CO [Compound I-193, 1-(4-{2,5-dichloro-4-[(1-{4-[2-(oxetan-3-yloxy)phenyl]pyridin-3-yl}cyclopropoxy)methyl]phenyl}butyl)-3-[(2S,3R,4R,5R)-2,3,4,5,6-pentahydroxyhexyl]urea], the EC50 was under 100 nM.
CSc1ccccc1-c1ccncc1C1(OCc2cc(Cl)ccc2Cl)CC1 [Compound I-739, 3-(1-((2,5-dichlorobenzyl)oxy)cyclopropyl)-4-(2-(methylthio)phenyl)pyridine] was tested, and the EC50 was 126 to 1000 nM.
For CCS(=O)(=O)CCN(CCCC(C)c1ccc(Cl)c(CNC2(c3cnccc3-c3ccccc3OC3CC3)CC2)c1)C(=O)[C@@H](O)[C@@H](O)[C@H](O)[C@@H](O)CO (stereo partly drawn) [Compound I-293, (2S,3S,4R,5S)-N-(4-{4-chloro-3-[({1-[4-(2-cyclopropoxyphenyl)pyridin-3-yl]cyclopropyl}amino)methyl]phenyl}pentyl)-N-[2-(ethanesulfonyl)ethyl]-2,3,4,5,6-pentahydroxyhexanamide], the EC50 was under 100 nM.
With O=C([C@@H](O)[C@@H](O)[C@H](O)[C@@H](O)CO)N(CCCSc1ccc(Cl)c(CNC2(c3cnccc3-c3ccccc3OC3CC3)CC2)c1)CCOCCO [Compound I-526, (2S,3S,4R,5S)-N-[3-({4-chloro-3-[({1-[4-(2-cyclopropoxyphenyl)pyridin-3-yl]cyclopropyl}amino)methyl]phenyl}sulfanyl)propyl]-2,3,4,5,6-pentahydroxy-N-[2-(2-hydroxyethoxy)ethyl]hexanamide] the EC50 was 126 to 1000 nM.
For CN(C[C@H](O)[C@@H](O)[C@H](O)[C@H](O)CO)C(=O)CCCCc1cc(Cl)c(CNC2(c3cnccc3-c3ccccc3OC3CC3)CC2)cc1Cl [Compound I-137, 5-{2,5-dichloro-4-[({1-[4-(2-cyclopropoxyphenyl)pyridin-3-yl]cyclopropyl}amino)methyl]phenyl}-N-methyl-N-[(2S,3R,4R,5R)-2,3,4,5,6-pentahydroxyhexyl]pentanamide], the EC50 was under 100 nM.
Molecule O=C(CCCCc1cc(Cl)c(COC2(c3cnccc3-c3ccccc3OC3CC3)CC2)cc1Cl)N1CCN(C[C@H](O)[C@@H](O)[C@H](O[C@@H]2O[C@H](CO)[C@H](O)[C@H](O)[C@H]2O)[C@H](O)CO)CC1 [Compound I-103, 5-[2,5-dichloro-4-({1-[4-(2-cyclopropoxyphenyl)pyridin-3-yl]cyclopropoxy}methyl)phenyl]-1-{4-[(2S,3R,4R,5R)-2,3,5,6-tetrahydroxy-4-{[(2S,3R,4S,5R,6R)-3,4,5-trihydroxy-6-(hydroxymethyl)oxan-2-yl]oxy}hexyl]piperazin-1-yl}pentan-1-one] has an EC50 of under 100 nM.
In the case of O=C(O)CN(CCN(CC(=O)O)CC(=O)NCCOCCSc1ccc(Cl)c(COC2(c3cnccc3-c3ccccc3OC3CC3)CC2)c1)CC(=O)NCCOCCSc1ccc(Cl)c(COC2(c3cnccc3-c3ccccc3OC3CC3)CC2)c1 [Compound I-612, 2-({2-[(carboxymethyl)({[2-(2-{[4-chloro-3-({1-[4-(2-cyclopropoxyphenyl)pyridin-3-yl]cyclopropoxy}methyl)phenyl]sulfanyl}ethoxy)ethyl]carbamoyl}methyl)amino]ethyl}({[2-(2-{[4-chloro-3-({1-[4-(2-cyclopropoxyphenyl)pyridin-3-yl]cyclopropoxy}methyl)phenyl]sulfanyl}ethoxy)ethyl]carbamoyl}methyl)amino)acetic acid], the EC50 is reported as 126 to 1000 nM.
In the case of CC(CCCCC(=O)NC[C@H](O)[C@@H](O)[C@H](O)[C@H](O)CO)c1ccc(Cl)c(CNC2(c3cnccc3-c3ccccc3OC3CC3)CC2)c1 (stereo partly drawn) [Compound I-317, 6-{4-chloro-3-[({1-[4-(2-cyclopropoxyphenyl)pyridin-3-yl]cyclopropyl}amino)methyl]phenyl}-N-[(2S,3R,4R,5R)-2,3,4,5,6-pentahydroxyhexyl]heptanamide], the EC50 is reported as under 100 nM.
Molecule CN(CCCCNC(=O)N[C@@H](CO)[C@@H](O)[C@H](O)[C@H](O)CO)S(=O)(=O)c1ccc(Cl)c(CNC2(c3cnccc3-c3ccccc3OC3CC3)CC2)c1 [Compound I-472, 1-(4-{N-methyl4-chloro-3-[({1-[4-(2-cyclopropoxyphenyl)pyridin-3-yl]cyclopropyl}amino)methyl]benzenesulfonamido}butyl)-3-[(2S,3R,4S,5R)-1,3,4,5,6-pentahydroxyhexan-2-yl]urea] has an EC50 of under 100 nM.
For CCN(C[C@H](O)[C@@H](O)[C@H](O)[C@H](O)CO)C(=O)CCCC(C)c1ccc(Cl)c(COC2(c3cnccc3-c3ccccc3OC3CC3)CC2)c1 (stereo partly drawn) [Compound I-373, 5-[4-chloro-3-({1-[4-(2-cyclopropoxyphenyl)pyridin-3-yl]cyclopropoxy}methyl)phenyl]-N-ethyl-N-[(2S,3R,4R,5R)-2,3,4,5,6-pentahydroxyhexyl]hexanamide], the EC50 was under 100 nM.
For NC(=O)CN(CCCCCSc1ccc(Cl)c(CNC2(c3cnccc3-c3ccccc3OC3CC3)CC2)c1)C(=O)[C@@H](O)[C@@H](O)[C@H](O)[C@@H](O)CO [Compound I-610, (2S,3S,4R,5S)-N-(carbamoylmethyl)-N-[5-({4-chloro-3-[({1-[4-(2-cyclopropoxyphenyl)pyridin-3-yl]cyclopropyl}amino)methyl]phenyl}sulfanyl)pentyl]-2,3,4,5,6-pentahydroxyhexanamide], the EC50 was under 100 nM.
Molecule CC(CCCC(=O)N(C)C[C@H](O)[C@@H](O)[C@H](O)[C@H](O)CO)c1cc(Cl)c(COC2(c3cnccc3-c3ccccc3OC3CC3)CC2)cc1Cl (stereo partly drawn) [Compound I-162, 5-[2,5-dichloro-4-({1-[4-(2-cyclopropoxyphenyl)pyridin-3-yl]cyclopropoxy}methyl)phenyl]-N-methyl-N-[(2S,3R,4R,5R)-2,3,4,5,6-pentahydroxyhexyl]hexanamide] has an EC50 of under 100 nM.
CC(CCCCN(CCS(C)(=O)=O)C(=O)[C@@H](O)[C@@H](O)[C@H](O)[C@@H](O)CO)c1ccc(Cl)c(CNC2(c3cnccc3-c3ccccc3OC3CC3)CC2)c1 (stereo partly drawn) [Compound I-291, (2S,3S,4R,5S)-N-(5-{4-chloro-3-[({1-[4-(2-cyclopropoxyphenyl)pyridin-3-yl]cyclopropyl}amino)methyl]phenyl}hexyl)-2,3,4,5,6-pentahydroxy-N-(2-methanesulfonylethyl)hexanamide] was tested, and the EC50 was under 100 nM.
In the case of O=C([C@@H](O)[C@@H](O)[C@H](O)[C@@H](O)CO)N(CCCCO)CCCCCSc1ccc(Cl)c(CNC2(c3cnccc3-c3ccccc3OC3CC3)CC2)c1 [Compound I-600, (2S,3S,4R,5S)-N-[5-({4-chloro-3-[({1-[4-(2-cyclopropoxyphenyl)pyridin-3-yl]cyclopropyl}amino)methyl]phenyl}sulfanyl)pentyl]-2,3,4,5,6-pentahydroxy-N-(4-hydroxybutyl)hexanamide], the EC50 is reported as under 100 nM.
In the case of Cc1cc(COC2(c3cnccc3-c3ccccc3OC3CC3)CC2)c(Cl)cc1CCCCNC(=O)N[C@@H](C)C(=O)N[C@@H](C)C(=O)N[C@@H](C)C(=O)O [Compound I-112, (2S)-2-[(2S)-2-[(2S)-2-[({4-[5-chloro-4-({1-[4-(2-cyclopropoxyphenyl)pyridin-3-yl]cyclopropoxy}methyl)-2-methylphenyl]butyl}carbamoyl)amino]propanamido]propanamido]propanoic acid], the EC50 is reported as under 100 nM.
O=C(NC[C@H](O)[C@@H](O)[C@H](O)[C@H](O)CO)[C@H]1CC[C@H](CNS(=O)(=O)c2ccc(Cl)c(COC3(c4cnccc4-c4ccccc4OC4CC4)CC3)c2)CC1 [Compound I-436, (1r,4r)-4-[4-chloro-3-({1-[4-(2-cyclopropoxyphenyl)pyridin-3-yl]cyclopropoxy}methyl)benzenesulfonamidomethyl]-N-[(2S,3R,4R,5R)-2,3,4,5,6-pentahydroxyhexyl]cyclohexane-1-carboxamide] showed an EC50 of under 100 nM.
C[C@H](CCCCNC(=O)NC[C@H](O)[C@@H](O)[C@H](O)[C@H](O)CO)c1ccc(Cl)c(CNC2(c3cnccc3-c3ccccc3OC3CC3)CC2)c1 (single isomer, unassigned) [Compound I-256] showed an EC50 of under 100 nM.
Molecule CCc1ccc(SCCCC(=O)N(C)C[C@H](O)[C@@H](O)[C@H](O)[C@H](O)CO)cc1COC1(c2cnccc2-c2ccccc2OC2CC2)CC1 [Compound I-691, 4-{[3-({1-[4-(2-cyclopropoxyphenyl)pyridin-3-yl]cyclopropoxy}methyl)-4-ethylphenyl]sulfanyl}-N-methyl-N-[(2S,3R,4R,5R)-2,3,4,5,6-pentahydroxyhexyl]butanamide] has an EC50 of 126 to 1000 nM.
O=C(NC[C@H](O)[C@@H](O)[C@H](O)[C@H](O)CO)[C@H]1CC[C@H](NS(=O)(=O)c2ccc(Cl)c(COC3(c4cnccc4-c4ccccc4OC4CC4)CC3)c2)CC1 [Compound I-442, (1r,4r)-4-[4-chloro-3-({1-[4-(2-cyclopropoxyphenyl)pyridin-3-yl]cyclopropoxy}methyl)benzenesulfonamido]-N-[(2S,3R,4R,5R)-2,3,4,5,6-pentahydroxyhexyl]cyclohexane-1-carboxamide] was tested, and the EC50 was under 100 nM.
